# Assay results published in patent US4914198A, “Novel substance UCY1003 and process for preparing the same” (priority 1985, dated 1990).
# Columns and labels:
# [1] = test system: male dd mice (number of writhes); assay: Analgesic activity: acetic acid-induced writhing in mice; format: in vivo; settings: for Inhibition Ratio: i.p., 60 min before acetic acid, N = 4
# Method: In this experiment, 4 male dd mice wieghing 20±1 g were used as one group for examination of analgesic activity. Sixty minutes after intraperitoneal administration of UCY1003 to each animal, 0.2 ml of a 0.7% acetic acid solution was intraperitoneally administered to the animal. Starting 10 minutes after the administration of acetic acid, the number of writhes occurred in 5 minutes was counted. Inhibition ratio in comparison with control group was calculated by the following equation. ED50 value was calculated in accordance with Litchfield and Wilcoxon. [formula] A: Average number of writhes of control group B: Average number of writhes of test group
# [2] = test system: Male spontaneously hypertensive rats (SHR) of Okamoto-Aoki strain; assay: Hypotensive activity: systolic blood pressure of conscious SHR, tail artery, plethysmographic apparatus; format: in vivo, rat (SHR; settings: for Blood Pressure after (90 min): 90 min after administration; for Blood Pressure after (90 min) / Blood Pressure Difference (before vs 90 min after administration) / Blood Pressure before: N = 3; for Blood Pressure after (90 min) / Blood Pressure before: mean ± S.E.; for Blood Pressure Difference (before vs 90 min after administration): a decrease; for Blood Pressure before: before administration (baseline)
# Method: Male spontaneously hypertensive rats (SHR) of Okamoto-Aoki strain (body weight, 310-360 g) were used. Systolic blood pressure of conscious SHR was measured indirectly from the tail artery with a plethysmographic apparatus (Ueda Electric Works, USM-105R). Test compound UCY1003 was suspended in 0.3% sodium carboxymethylcellulose (CMC) solution and was intraperitoneally administered in a volume of 2 ml per kg of body weight.
# [3] = test system: Bacillus subtilis No. 10707; assay: Agar dilution method (pH 7), MIC; format: cell-based
# From the text: (§1) Anti-bacterial activities of UCY1003 against various microorganisms measured by agar dilution method (pH 7) are shown in Table 3.
# [4] = test system: Candida albicans ATCC 10231; assay: Agar dilution method (pH 7), MIC; format: cell-based; settings: ATCC10231
# From the text: as §1
# Escherichia coli ATCC 26 = assay: Agar dilution method (pH 7), MIC; format: cell-based; settings: ATCC26
# From the text: as §1
# [5] = test system: Klebsiella pneumoniae ATCC 10031; assay: Agar dilution method (pH 7), MIC; format: cell-based; settings: ATCC10031
# From the text: as §1
# [6] = test system: Saccharomyces cerevisiae C-203; assay: Agar dilution method (pH 7), MIC; format: cell-based; settings: C203
# From the text: as §1
# [7] = test system: Salmonella typhosa ATCC 9992; assay: Agar dilution method (pH 7), MIC; format: cell-based; settings: Salmonella enterica
# From the text: as §1
# [8] = test system: Staphylococcus aureus ATCC 6538P; assay: Agar dilution method (pH 7), MIC; format: cell-based; settings: ATCC6538P
# From the text: as §1
# Acute toxicity in mice = settings: mouse, in vivo, ip; single intraperitoneal administration, 5 ddY mice, 14 days observation, Beherns Karber's method
# Method: UCY1003 was intraperitoneally administered once to each animal of the test group consisting of 5 ddY mice. […] The LD50 was determined by Beherns Karber's method to be more than 200 mg/kg.
smiles,measurement,setting,value
C=C(CCC1(C)OC2O[C@@H]3C[C@H]1[C@]21CC[C@@H]2[C@@]4(C)CC[C@H](O)C[C@@H]4C[C@@H]4O[C@@]42[C@H]31)C(C)C (stereo partly drawn) [UCY1003],Inhibition Ratio,[1]; 5 mg/kg,17%
same,Inhibition Ratio,[1]; 10 mg/kg,52%
same,Inhibition Ratio,[1]; 25 mg/kg,52%
same,Inhibition Ratio,[1]; 50 mg/kg,83%
same,Inhibition Ratio,[1]; 100 mg/kg,95%
same,ED50,"[1]; Mus musculus, ip, calculated in accordance with Litchfield and Wilcoxon",17 mg/kg
same,Blood Pressure after (90 min),"[2]; 50 mg/kg, i.p.",177 ± 14 mmHg
same,Blood Pressure Difference (before vs 90 min after administration),"[2]; 50 mg/kg, i.p.",18 ± 15 mmHg
same,hypotension,"[2]; 100 mg/kg, i.p.",caused hypotension
same,Blood Pressure after (90 min),"[2]; 100 mg/kg, i.p.",142 ± 9 mmHg
same,Blood Pressure Difference (before vs 90 min after administration),"[2]; 100 mg/kg, i.p.",45 ± 8 mmHg
same,Blood Pressure before,[2]; 50 mg/kg i.p. group,195 ± 8 mmHg
same,Blood Pressure before,[2]; 100 mg/kg i.p. group,187 ± 3 mmHg
same,MIC,[3],> 100 µg/mL
same,MIC,[4],> 100 µg/mL
same,MIC,Escherichia coli ATCC 26,> 100 µg/mL
same,MIC,[5],> 100 µg/mL
same,MIC,[6],2 µg/mL
same,MIC,[7],> 100 µg/mL
same,MIC,[8],> 100 µg/mL
same,LD50 at 336 h,Acute toxicity in mice,> 200 mg/kg
